Data taken from PubChem BioAssay AID1963968 (Molecular Pharmacology Branch, DTP, NCI, 2024).

Test system: 945468-187-T-J3-PDC spheroids with HUVEC/MSC, viability
Assay: Anticancer human tumor 945468-187-T-J3-PDC patient-derived rectal carcinoma cell line growth inhibition [PI3K]
Settings: for IC50: curve of first compound; for viability, T/C: stronger effect = lower value
How it was run: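 Combination activity was assessed by viability in multicellular tumor spheroids carrying HUVEC and MSC components. Agents were tested with PI3K inhibitors from a Cmax-based top dose (or 10 microM) downward in half-log increments.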

[1] = second compound 0.00316 µM, first compound 0.0316 µM
[2] = second compound 0.00316 µM, first compound 0.1 µM
[3] = second compound 0.00316 µM, first compound 0.316 µM
[4] = second compound 0.00316 µM, first compound 1 µM
[5] = second compound 0.00316 µM, first compound 3.16 µM
[6] = second compound 0.00316 µM, first compound 10 µM
[7] = second compound 0.01 µM, first compound 0.0316 µM
[8] = second compound 0.01 µM, first compound 0.1 µM
[9] = second compound 0.01 µM, first compound 0.316 µM
[10] = second compound 0.01 µM, first compound 1 µM
[11] = second compound 0.01 µM, first compound 3.16 µM
[12] = second compound 0.01 µM, first compound 10 µM
[13] = second compound 0.0316 µM, first compound 0.0316 µM
[14] = second compound 0.0316 µM, first compound 0.1 µM
[15] = second compound 0.0316 µM, first compound 0.316 µM
[16] = second compound 0.0316 µM, first compound 1 µM
[17] = second compound 0.0316 µM, first compound 3.16 µM
[18] = second compound 0.0316 µM, first compound 10 µM
[19] = second compound 0.1 µM, first compound 0.0316 µM
[20] = second compound 0.1 µM, first compound 0.1 µM
[21] = second compound 0.1 µM, first compound 0.316 µM
[22] = second compound 0.1 µM, first compound 1 µM
[23] = second compound 0.1 µM, first compound 3.16 µM
[24] = second compound 0.1 µM, first compound 10 µM
[25] = second compound 0.316 µM, first compound 0.0316 µM
[26] = second compound 0.316 µM, first compound 0.1 µM
[27] = second compound 0.316 µM, first compound 0.316 µM
[28] = second compound 0.316 µM, first compound 1 µM
[29] = second compound 0.316 µM, first compound 3.16 µM
[30] = second compound 0.316 µM, first compound 10 µM
[31] = second compound 1 µM, first compound 0.0316 µM
[32] = second compound 1 µM, first compound 0.1 µM
[33] = second compound 1 µM, first compound 0.316 µM
[34] = second compound 1 µM, first compound 1 µM
[35] = second compound 1 µM, first compound 3.16 µM
[36] = second compound 1 µM, first compound 10 µM
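Note: spheroids exposed to agents for 7 days before viability read.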
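Throughout, for viability, T/C: 100% = DMSO vehicle control viability.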

SMILES: C#Cc1c(F)ccc2cc(O)cc(-c3ncc4c(N5CC6CCC(C5)N6)nc(OCC56CCCN5CC(F)C6)nc4c3F)c12 (stereo not drawn) + COc1c(OCCCN2CCOCC2)ccc2c3n(c(=NC(=O)c4cnc(N)nc4)nc12)CCN3
- IC50 (second compound 0.00316 µM): > 10000 nM
- IC50 (second compound 0.01 µM): > 10000 nM
- IC50 (second compound 0.0316 µM): > 10000 nM
- IC50 (second compound 0.1 µM): < 31.6 nM
- IC50 (second compound 0.316 µM): < 31.6 nM
- IC50 (second compound 1 µM): < 31.6 nM
- viability, T/C [1]: 102%
- viability, T/C [2]: 95.9%
- viability, T/C [3]: 98.6%
- viability, T/C [4]: 94.2%
- viability, T/C [5]: 108%
- viability, T/C [6]: 117%
- viability, T/C [7]: 98.1%
- viability, T/C [8]: 97.2%
- viability, T/C [9]: 96.6%
- viability, T/C [10]: 89%
- viability, T/C [11]: 104%
- viability, T/C [12]: 98%
- viability, T/C [13]: 79.6%
- viability, T/C [14]: 88.2%
- viability, T/C [15]: 91.3%
- viability, T/C [16]: 87.2%
- viability, T/C [17]: 69.9%
- viability, T/C [18]: 57.6%
- viability, T/C [19]: 37.4%
- viability, T/C [20]: 42.2%
- viability, T/C [21]: 46.3%
- viability, T/C [22]: 39%
- viability, T/C [23]: 34.7%
- viability, T/C [24]: 18.5%
- viability, T/C [25]: 22.8%
- viability, T/C [26]: 22.4%
- viability, T/C [27]: 21.6%
- viability, T/C [28]: 13.1%
- viability, T/C [29]: 17.2%
- viability, T/C [30]: 5.33%
- viability, T/C [31]: 16.2%
- viability, T/C [32]: 14.6%
- viability, T/C [33]: 14.8%
- viability, T/C [34]: 9.87%
- viability, T/C [35]: 6.91%
- viability, T/C [36]: 3.67%

SMILES: C=CC(=O)N1CCN(c2nc(=O)n(-c3c(C)ccnc3C(C)C)c3nc(-c4c(O)cccc4F)c(F)cc23)C(C)C1 (stereo not drawn) + COc1c(OCCCN2CCOCC2)ccc2c3n(c(=NC(=O)c4cnc(N)nc4)nc12)CCN3
- IC50 (second compound 0.00316 µM): > 10000 nM
- IC50 (second compound 0.01 µM): > 10000 nM
- IC50 (second compound 0.0316 µM): > 10000 nM
- IC50 (second compound 0.1 µM): < 31.6 nM
- IC50 (second compound 0.316 µM): < 31.6 nM
- IC50 (second compound 1 µM): < 31.6 nM
- viability, T/C [1]: 97.2%
- viability, T/C [2]: 109%
- viability, T/C [3]: 125%
- viability, T/C [4]: 89.9%
- viability, T/C [5]: 95.8%
- viability, T/C [6]: 99.4%
- viability, T/C [7]: 105%
- viability, T/C [8]: 90%
- viability, T/C [9]: 94.1%
- viability, T/C [10]: 97.5%
- viability, T/C [11]: 101%
- viability, T/C [12]: 92.4%
- viability, T/C [13]: 95.4%
- viability, T/C [14]: 86.7%
- viability, T/C [15]: 86.6%
- viability, T/C [16]: 88.2%
- viability, T/C [17]: 95.1%
- viability, T/C [18]: 96.9%
- viability, T/C [19]: 49.2%
- viability, T/C [20]: 48.2%
- viability, T/C [21]: 57.6%
- viability, T/C [22]: 62%
- viability, T/C [23]: 75.2%
- viability, T/C [24]: 74.3%
- viability, T/C [25]: 20.3%
- viability, T/C [26]: 20.9%
- viability, T/C [27]: 21.1%
- viability, T/C [28]: 22.6%
- viability, T/C [29]: 22.9%
- viability, T/C [30]: 28.9%
- viability, T/C [31]: 17%
- viability, T/C [32]: 18.3%
- viability, T/C [33]: 14.3%
- viability, T/C [34]: 15.5%
- viability, T/C [35]: 17.5%
- viability, T/C [36]: 19%

SMILES: CC(Cn1ccc(-c2ccc(C#N)c(Cl)c2)n1)NC(=O)c1cc(C(C)O)[nH]n1 (stereo not drawn) + COc1c(OCCCN2CCOCC2)ccc2c3n(c(=NC(=O)c4cnc(N)nc4)nc12)CCN3
- IC50 (second compound 0.00316 µM): > 10000 nM
- IC50 (second compound 0.01 µM): > 10000 nM
- IC50 (second compound 0.0316 µM): > 10000 nM
- IC50 (second compound 0.1 µM): < 31.6 nM
- IC50 (second compound 0.316 µM): < 31.6 nM
- IC50 (second compound 1 µM): < 31.6 nM
- viability, T/C [1]: 96.6%
- viability, T/C [2]: 92.7%
- viability, T/C [3]: 95.7%
- viability, T/C [4]: 88.5%
- viability, T/C [5]: 93.9%
- viability, T/C [6]: 92.3%
- viability, T/C [7]: 93%
- viability, T/C [8]: 96.8%
- viability, T/C [9]: 103%
- viability, T/C [10]: 94.8%
- viability, T/C [11]: 98.6%
- viability, T/C [12]: 96.5%
- viability, T/C [13]: 107%
- viability, T/C [14]: 81%
- viability, T/C [15]: 95.9%
- viability, T/C [16]: 95.7%
- viability, T/C [17]: 109%
- viability, T/C [18]: 88.2%
- viability, T/C [19]: 49.1%
- viability, T/C [20]: 50%
- viability, T/C [21]: 49.1%
- viability, T/C [22]: 48.9%
- viability, T/C [23]: 48.2%
- viability, T/C [24]: 54.7%
- viability, T/C [25]: 23.3%
- viability, T/C [26]: 24.2%
- viability, T/C [27]: 18.5%
- viability, T/C [28]: 21.6%
- viability, T/C [29]: 27.5%
- viability, T/C [30]: 23.1%
- viability, T/C [31]: 18.8%
- viability, T/C [32]: 15.6%
- viability, T/C [33]: 16.6%
- viability, T/C [34]: 15.2%
- viability, T/C [35]: 18.7%
- viability, T/C [36]: 16.1%

SMILES: CC1(C)CCC(Nc2ncc(C(F)(F)F)c(-c3c[nH]c4c(P(C)(C)=O)c(C#N)ccc34)n2)CN1 (stereo not drawn) + COc1c(OCCCN2CCOCC2)ccc2c3n(c(=NC(=O)c4cnc(N)nc4)nc12)CCN3
- IC50 (second compound 0.00316 µM): 3350 nM
- IC50 (second compound 0.01 µM): 31.6 nM
- IC50 (second compound 0.0316 µM): 1250 nM
- IC50 (second compound 0.1 µM): < 31.6 nM
- IC50 (second compound 0.316 µM): < 31.6 nM
- IC50 (second compound 1 µM): < 31.6 nM
- viability, T/C [1]: 55.6%
- viability, T/C [2]: 40.7%
- viability, T/C [3]: 39%
- viability, T/C [4]: 49.6%
- viability, T/C [5]: 78.7%
- viability, T/C [6]: 6.58%
- viability, T/C [7]: 45.7%
- viability, T/C [8]: 48.1%
- viability, T/C [9]: 41.9%
- viability, T/C [10]: 56%
- viability, T/C [11]: 55.7%
- viability, T/C [12]: 5.22%
- viability, T/C [13]: 56.8%
- viability, T/C [14]: 47.4%
- viability, T/C [15]: 52%
- viability, T/C [16]: 48.1%
- viability, T/C [17]: 46.9%
- viability, T/C [18]: 5.62%
- viability, T/C [19]: 40.4%
- viability, T/C [20]: 39.2%
- viability, T/C [21]: 34.3%
- viability, T/C [22]: 35.4%
- viability, T/C [23]: 40.3%
- viability, T/C [24]: 2.67%
- viability, T/C [25]: 27.9%
- viability, T/C [26]: 26.6%
- viability, T/C [27]: 23.2%
- viability, T/C [28]: 20.5%
- viability, T/C [29]: 20.8%
- viability, T/C [30]: 5.77%
- viability, T/C [31]: 15.7%
- viability, T/C [32]: 17.2%
- viability, T/C [33]: 17.5%
- viability, T/C [34]: 14.6%
- viability, T/C [35]: 11.4%
- viability, T/C [36]: 0.98%
